Assay results from PubChem BioAssay (NCI).
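96-well plates; 48 h exposure; 5 concentrations. Endpoints by linear interpolation between flanking doses. Not reached: highest tested concentration assigned. TGI: concentration producing complete growth inhibition.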

What was measured:
Test in all cases: inhibition of tumour cell growth, NCI panel, 48 h
K-562 leukemia = test system: K-562 leukemia
CAKI-1 renal = test system: CAKI-1 renal
SK-OV-3 ovarian = test system: SK-OV-3 ovarian
SNB-19 CNS = test system: SNB-19 CNS
PC-3 prostate = test system: PC-3 prostate
SF-539 CNS = test system: SF-539 CNS
CCRF-CEM leukemia = test system: CCRF-CEM leukemia
786-0 renal = test system: 786-0 renal
U251 CNS = test system: U251 CNS
HOP-92 NSCLC = test system: HOP-92 NSCLC
HCT-15 colon = test system: HCT-15 colon
IGROV1 ovarian = test system: IGROV1 ovarian
ACHN renal = test system: ACHN renal
NCI-H460 lung = test system: NCI-H460 lung
OVCAR-8 ovarian = test system: OVCAR-8 ovarian
SNB-75 CNS = test system: SNB-75 CNS
MOLT-4 leukemia = test system: MOLT-4 leukemia
RXF 393 renal = test system: RXF 393 renal
NCI-H23 lung = test system: NCI-H23 lung
DU-145 prostate = test system: DU-145 prostate
SK-MEL-28 melanoma = test system: SK-MEL-28 melanoma
UO-31 renal = test system: UO-31 renal
UACC-62 melanoma = test system: UACC-62 melanoma
OVCAR-3 ovarian = test system: OVCAR-3 ovarian
BT-549 breast = test system: BT-549 breast
SW-620 colon = test system: SW-620 colon
UACC-257 melanoma = test system: UACC-257 melanoma
COLO 205 colon = test system: COLO 205 colon
LOX IMVI melanoma = test system: LOX IMVI melanoma
SK-MEL-5 melanoma = test system: SK-MEL-5 melanoma
SN12C renal = test system: SN12C renal
MALME-3M melanoma = test system: MALME-3M melanoma
HT29 colon = test system: HT29 colon
NCI-H226 lung = test system: NCI-H226 lung
EKVX NSCLC = test system: EKVX NSCLC
HCC-2998 colon = test system: HCC-2998 colon
MCF7 breast = test system: MCF7 breast
A549 NSCLC = test system: A549 NSCLC
MDA-MB-231 breast = test system: MDA-MB-231 breast
SF-295 CNS = test system: SF-295 CNS
SK-MEL-2 melanoma = test system: SK-MEL-2 melanoma
NCI/ADR-RES ovarian = test system: NCI/ADR-RES ovarian
HOP-62 NSCLC = test system: HOP-62 NSCLC
HS 578T breast = test system: HS 578T breast
M14 melanoma = test system: M14 melanoma
OVCAR-5 ovarian = test system: OVCAR-5 ovarian
OVCAR-4 ovarian = test system: OVCAR-4 ovarian
TK-10 renal = test system: TK-10 renal
RPMI-8226 leukemia = test system: RPMI-8226 leukemia
HCT-116 colon = test system: HCT-116 colon
T-47D breast = test system: T-47D breast
NCI-H522 lung = test system: NCI-H522 lung
MDA-N = test system: MDA-N
KM12 colon = test system: KM12 colon
MDA-MB-435 = test system: MDA-MB-435
SF-268 CNS = test system: SF-268 CNS
A498 renal = test system: A498 renal
SR leukemia = test system: SR leukemia

Brc1cccc(C2ON=C(c3ccccc3)N2C23CC4CC(CC(C4)C2)C3)c1 (stereo unspecified) was tested, and the TGI (K-562 leukemia) was > 10 µM, the TGI (CAKI-1 renal) was > 10 µM and the TGI (SK-OV-3 ovarian) was > 10 µM. The TGI (SNB-19 CNS) was > 10 µM, the TGI (PC-3 prostate) was > 10 µM and the TGI (SF-539 CNS) was > 10 µM. For the same molecule, the TGI (CCRF-CEM leukemia) was > 10 µM, the TGI (786-0 renal) was > 10 µM and the TGI (U251 CNS) was > 10 µM. For the same molecule, the TGI (HOP-92 NSCLC) was > 10 µM, the TGI (HCT-15 colon) was > 10 µM and the TGI (IGROV1 ovarian) was > 10 µM. The TGI (ACHN renal) was > 10 µM, the TGI (NCI-H460 lung) was > 10 µM and the TGI (OVCAR-8 ovarian) was > 10 µM. The TGI (SNB-75 CNS) was > 10 µM, the TGI (MOLT-4 leukemia) was > 10 µM and the TGI (RXF 393 renal) was > 10 µM. The TGI (NCI-H23 lung) was > 10 µM, the TGI (DU-145 prostate) was > 10 µM and the TGI (SK-MEL-28 melanoma) was > 10 µM. For the same molecule, the TGI (UO-31 renal) was > 10 µM, the TGI (UACC-62 melanoma) was > 10 µM and the TGI (OVCAR-3 ovarian) was > 10 µM. For the same molecule, the TGI (BT-549 breast) was > 10 µM, the TGI (SW-620 colon) was > 10 µM and the TGI (UACC-257 melanoma) was > 10 µM. The TGI (COLO 205 colon) was > 10 µM, the TGI (LOX IMVI melanoma) was > 10 µM and the TGI (SK-MEL-5 melanoma) was > 10 µM. The TGI (SN12C renal) was > 10 µM, the TGI (MALME-3M melanoma) was > 10 µM and the TGI (HT29 colon) was > 10 µM. The TGI (NCI-H226 lung) was > 10 µM, the TGI (EKVX NSCLC) was > 10 µM and the TGI (HCC-2998 colon) was > 10 µM. For the same molecule, the TGI (MCF7 breast) was > 10 µM, the TGI (A549 NSCLC) was > 10 µM and the TGI (MDA-MB-231 breast) was > 10 µM. The TGI (SF-295 CNS) was > 10 µM, the TGI (SK-MEL-2 melanoma) was > 10 µM and the TGI (NCI/ADR-RES ovarian) was > 10 µM. For the same molecule, the TGI (HOP-62 NSCLC) was > 10 µM, the TGI (HS 578T breast) was > 10 µM and the TGI (M14 melanoma) was > 10 µM. For the same molecule, the TGI (OVCAR-5 ovarian) was > 10 µM, the TGI (OVCAR-4 ovarian) was > 10 µM and the TGI (TK-10 renal) was > 10 µM. The TGI (RPMI-8226 leukemia) was > 10 µM, the TGI (HCT-116 colon) was > 10 µM and the TGI (T-47D breast) was > 10 µM. The TGI (NCI-H522 lung) was > 10 µM, the TGI (MDA-N) was > 10 µM and the TGI (KM12 colon) was > 10 µM. For the same molecule, the TGI (MDA-MB-435) was > 10 µM, the TGI (SF-268 CNS) was > 10 µM and the TGI (A498 renal) was > 10 µM.
For OC1COC2CC(Nc3ccccn3)OC12 (stereo unspecified), the TGI (K-562 leukemia) was > 100 µM, the TGI (SR leukemia) was > 100 µM and the TGI (CAKI-1 renal) was > 100 µM. For the same molecule, the TGI (SK-OV-3 ovarian) was > 100 µM, the TGI (SNB-19 CNS) was > 100 µM and the TGI (PC-3 prostate) was > 100 µM. For the same molecule, the TGI (SF-539 CNS) was > 100 µM, the TGI (CCRF-CEM leukemia) was > 100 µM and the TGI (786-0 renal) was > 100 µM. The TGI (U251 CNS) was > 100 µM, the TGI (HCT-15 colon) was > 100 µM and the TGI (IGROV1 ovarian) was > 100 µM. For the same molecule, the TGI (ACHN renal) was > 100 µM, the TGI (NCI-H460 lung) was > 100 µM and the TGI (OVCAR-8 ovarian) was > 100 µM. The TGI (SNB-75 CNS) was > 100 µM, the TGI (MOLT-4 leukemia) was > 100 µM and the TGI (RXF 393 renal) was > 100 µM. For the same molecule, the TGI (NCI-H23 lung) was > 100 µM, the TGI (SK-MEL-28 melanoma) was > 100 µM and the TGI (UO-31 renal) was > 100 µM. The TGI (UACC-62 melanoma) was > 100 µM, the TGI (OVCAR-3 ovarian) was > 100 µM and the TGI (BT-549 breast) was > 100 µM. For the same molecule, the TGI (SW-620 colon) was > 100 µM, the TGI (UACC-257 melanoma) was > 100 µM and the TGI (COLO 205 colon) was > 100 µM. The TGI (LOX IMVI melanoma) was > 100 µM, the TGI (SK-MEL-5 melanoma) was > 100 µM and the TGI (SN12C renal) was > 100 µM. The TGI (MALME-3M melanoma) was > 100 µM, the TGI (HT29 colon) was > 100 µM and the TGI (NCI-H226 lung) was > 100 µM. For the same molecule, the TGI (EKVX NSCLC) was > 100 µM, the TGI (HCC-2998 colon) was > 100 µM and the TGI (A549 NSCLC) was > 100 µM. The TGI (MDA-MB-231 breast) was > 100 µM, the TGI (SF-295 CNS) was > 100 µM and the TGI (SK-MEL-2 melanoma) was > 100 µM. The TGI (NCI/ADR-RES ovarian) was > 100 µM, the TGI (HOP-62 NSCLC) was > 100 µM and the TGI (HS 578T breast) was > 100 µM. The TGI (M14 melanoma) was > 100 µM, the TGI (OVCAR-5 ovarian) was > 100 µM and the TGI (OVCAR-4 ovarian) was > 100 µM. For the same molecule, the TGI (TK-10 renal) was > 100 µM, the TGI (RPMI-8226 leukemia) was > 100 µM and the TGI (HCT-116 colon) was > 100 µM. The TGI (T-47D breast) was > 100 µM, the TGI (NCI-H522 lung) was > 100 µM and the TGI (MDA-N) was > 100 µM. For the same molecule, the TGI (KM12 colon) was > 100 µM, the TGI (MDA-MB-435) was > 100 µM and the TGI (SF-268 CNS) was > 100 µM.
